From patent publication US20230202980A1, “N-(2-Aminophenyl)-Prop-2-Enamide Derivatives, and Uses Thereof in the Treatment of Cancer” (National University of Singapore, priority 2019, published 2023)
Values belong to the compound of their own block, whether it stands above or below them.

Tests used:
[1] = tested on: SNU-398 (SALL4 high) cells; test: SALL4 high/low phenotypic screen (cell viability, CellTiter-Glo), SALL4 high cells; assay type: cell-based; settings: for IC50: Homo sapiens, SNU-398, read-out: IC50 in high SALL4 SNU398 cells; for IC50 / IC50 in high SALL4 SNU398 cells: SALL4 high/low phenotypic screen, 72 hrs; for fold less potent than the most active compounds: SALL4 high SNU398 cells
Protocol: (§1) SNU-387 empty vector, Tg:SALL4A, and Tg:SALL4B expressing isogenic cell lines were generated by transducing WT SNU-387 cells with empty vector, SALL4A or SALL4B FUW-Luc-mCh-puro lentiviral constructs^1. Cells were plated in 50 µl of RPMI culture media in 384-well white flat-bottom plates (Coming) and incubated at 37° C. in a humidified atmosphere of 5% CO2 overnight. Cell numbers per well were 1500 for SNU-398, and 750 for SNU-387 and SNU-387 isogenic lines. After overnight incubation, varying concentrations of compounds 1-80 were added to cells with multichannel electronic pipettes (Rainin). Cells were then incubated for 72 hrs at 37° C. in a humidified atmosphere of 5% CO2 before 10 µl of CellTiter-Glo reagent was added to the wells with the MultiFlo Microplate Dispenser (BioTek). Cells were incubated at room temperature for a mininuun of 10 minutes after which luminescence readings were recorded by an Infinite M1000 Microplate Reader (Tecan).
This testing was based on SALL4 high/low phenotypic screen as described herein. IC50 values noted for the compounds/groups above are based on ICso in high SALL4 SNU398 cells.
ALPHA assay measures binding between SALL4 and RBBp4, an inhibitor could block the binding and reflected in low reading of the ALPHA assay. FP assay also measures binding between SALL4 and RBBp4, an inhibitor results in […] reading. Cell-based assays are measuring cell viability with different concentration of compounds. Cell based 1299 refers to cell viability assay using H1299 cells; Cell-based SNU387 refers to cell viability assay using SNU387 cells; Cell based assay-SNU-398 refers to cell viability assay using SNU398 cells; Cell based MDA-MB231 refers to cell viability assay using MDA-MB231 cells.

[2] = tested on: SALL4 high tumor; test: In vivo xenotransplant testing in mice; settings: treated mice, P<0.05
[3] = tested on: SALL4 RNA; test: SALL4 RNA expression down regulation (Q-PCR) in H661 cells; assay type: cell-based; settings: 48 hrs
Protocol: Cells were treated with compound 6 at 1 µM and 2.5 µM. Amounts for other cmpds are shown. Cells were harvested at 48 hrs and the cell lysates were subjected to western blot analysis and Q-PCR analysis for SALL4 protein and RNA level respectively. […] As shown in the lower panel of FIG. 6, using Q-PCR, it was shown that SALL4 RNA level was reduced by Compound 6 in H661 cells.

[4] = PAMPA permeability assay; assay type: in vitro ADME; settings: 50 µM, pION buffer, 4 hours
From the text: (§2) Pan-HDAC binding assay measures HDAC inhibitory activity of a compound. Tubulin Polymerisation inhibition assays measure inhibition activity of a compound towards tubulin polymerization. SALL4 protein expression down regulation assay changed to western blot analysis, SALL4 RNA expression down regulation assay changed to real-time PCR assay. Permeability assay measures the (PAMPA) measures permeability of a compound across an artificial membrane. The microsomal stability assay measures rate of disappearance of a test compound over time in liver microsomes. In vivo PK assay measures biodistribution of the test compound in mice.
50 µM of Compound 6 prepared in pION buffer was added to bottom of UV plate. GIT-0 solution was added and the solution was incubated for 4 hours. The plate spectrum was read using spectrophotometer in scanning mode from 200 nm to 500 nm using PAMPA pION software.

[5] = tested on: SNU-387 (SALL4 low) cells; test: SALL4 high/low phenotypic screen (cell viability, CellTiter-Glo), SALL4 low cells; assay type: cell-based; settings: Example 1, see FIG. 2
Protocol: as §1
ALPHA assay measures binding between SALL4 and RBBp4, an inhibitor could block the binding and reflected in low reading of the ALPHA assay. FP assay also measures binding between SALL4 and RBBp4, an inhibitor results in […] reading. Cell-based assays are measuring cell viability with different concentration of compounds. […]

[6] = Pharmacokinetic study, whole blood concentration by LC-MS/MS; assay type: in vivo, Swiss albino mice
Protocol: Compound 6 was dissolved in water containing 3% DMSO and 10% hydroxyl propyl-b-cyclodextrin (EncapsinTM) for the i.v. dose, and in water containing 5% DMSO and 9.5% Encapsin for the oral dose. Blood samples were collected at 0.083, 0.25, 0.5, 1, 2, 4, 6, 8 and 24 hrs. The whole blood concentration was measured by LC-MS/MS. From the oral route, 90% of compound 6 was cleared at 2 hrs. For the intravenous route, 90% of compound 6 was cleared at 4 hrs.

[7] = Metabolic stability using liver microsomes; assay type: in vitro ADME; settings: 1 µM, 3.33 mg/ml liver microsomes, 2.5 mM NADPH
From the text: as §2
1 µM of compound 6 was incubated with 3.33 mg/ml liver microsomes and 2.5 mM NADPH for 0, 5, 10, 30 and 60 minutes. The mixture were subjected to LC-MS/MS to measure remaining compound after the incubation.

[8] = biological target: T1, SALL4 1-300 protein (Homo sapiens, UniProt Q9UJQ4); test: Thermal Shift Assay (fluorescence-based binding assay); settings: SALL4 1-300 with 100 mM compound
T1 sequence (Q9UJQ4 1-300): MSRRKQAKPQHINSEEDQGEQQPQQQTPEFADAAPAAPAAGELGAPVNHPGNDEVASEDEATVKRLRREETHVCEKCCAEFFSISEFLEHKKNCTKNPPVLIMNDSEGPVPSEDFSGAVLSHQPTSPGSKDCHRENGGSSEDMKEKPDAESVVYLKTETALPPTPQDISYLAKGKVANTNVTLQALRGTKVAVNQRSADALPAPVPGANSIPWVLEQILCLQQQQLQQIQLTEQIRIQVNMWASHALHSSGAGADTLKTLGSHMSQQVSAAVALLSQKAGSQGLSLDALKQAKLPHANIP
From the text: In the upper panel of FIG. 7, a fluorescence-based binding assay named Thermal Shift Assay was used to assess the binding of compound 6 to SALL4 1-300 protein based on changes in unfolding transition. […] In the lower panel of FIG. 7, compound 6 binding to SALL4 was accessed by 1H NMR Experiments and Saturation Transfer Difference (STD) using ^15N SALL4 1-300 and Compound 6. The samples were screened using Bruker BioSpin AVANCE II 600 MHz spectrometer equipped with a CPPTCI{ 19F} cryoprobe and SampleJet auto-sampler. Compound 6 weak binding event to SALL4 1-300 was identified based on the increase in transverse relaxation rate (R2) observed in the presence of SALL4 1-300 protein.

IC50 [1]: 150 to 1000 nM
Structure (SMILES): COc1ccc(N)c(NC(=O)/C=C/c2cccnc2Nc2cc(OC)c(OC)c(OC)c2)c1

IC50 [1]: 150 to 1000 nM
Structure (SMILES): COc1cc(Nc2ncccc2/C=C/C(=O)Nc2cc(C)ccc2N)cc(OC)c1OC

IC50 [1]: ~2000 nM
Structure (SMILES): COc1ccc(Nc2ncccc2/C=C/C(=O)Nc2cc(C)ccc2N)cc1
fold less potent than the most active compounds [1]: about 10 fold

IC50 [1]: ~25000 nM
Structure (SMILES): COc1ccc(N)c(NC(=O)/C=C/c2cccnc2Nc2ccc(C(F)(F)F)cc2)c1
fold less potent than the most active compounds [1]: about 100 fold

IC50 in high SALL4 SNU398 cells [1]: inactive
Structure (SMILES): Nc1ccc(Cl)cc1NC(=O)c1cccnc1Nc1ccc(F)cc1

Continued, compound first:

Structure (SMILES): COc1cc(Nc2ncccc2/C=C/C(=O)Nc2cc(Cl)c(Cl)cc2N)cc(OC)c1OC
IC50 [1]: 150 to 1000 nM

Structure (SMILES): Nc1ccc(F)cc1NC(=O)c1cccnc1Nc1ccc(F)cc1
IC50 in high SALL4 SNU398 cells [1]: inactive

Structure (SMILES): COc1cc(Nc2ncccc2/C=C/C(=O)Nc2ccc(Cl)cc2N)cc(OC)c1OC [Cmpd 6]
xenograft size [2]: significant (P<0.05) smaller | xenograft weight [2]: significant (P<0.05) smaller | SALL4 RNA level (Q-PCR) [3]: reduced | permeability in PAMPA assay [4]: high | low SALL4 cell inhibition, concentration [5]: high micromolar | compound cleared from whole blood ([6]; intravenous 5 mg/kg, at 4 hrs): 90% | compound cleared from whole blood ([6]; oral 15 mg/kg, at 2 hrs): 90% | activity in high SALL4 cells ([1]; Example 1, see FIG. 2): sub-micromolar | selectivity between SALL4 low and SALL4 high cells (FIG. 2) ([1]; SALL4 high vs SALL4 low cells): excellent | EC50 / potency (FIG. 2) ([1]; cell-based screening, SALL4 high cells): excellent | status in liver microsome assay (printed: permeability status) [7]: medium | metabolic stability in liver microsomes, %QH ([7]; 0-60 minutes): 45.88 %QH | melting shift [8]: 4.7 °C

Structure (SMILES): COc1cc(Nc2ncccc2/C=C/C(=O)Nc2ccc(Cl)cc2N)cc(OC)c1OC [drawing 157]
IC50 [1]: 150 to 1000 nM
